Data taken from PubChem BioAssay (NCI).
Values joined by “and” are separate entries in the source; they are usually repeats but may differ in a detail not shown here. Equal entries are not always repeated.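 Five compound concentrations were applied to cells in 96-well plates for 48 hours; endpoints were derived by simple linear interpolation of the resulting dose-response curve. GI50 marks 50% less growth. TGI is the concentration that stops growth completely.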

Assays:
Test in all cases: NCI-60 cell line screen, 48 h; in the data active = GI50 below about 0.43 µM; inactive = the rest
[1] = test system: HS 578T breast
[2] = test system: IGROV1 ovarian
[3] = test system: HCT-15 colon
[4] = test system: SF-268 CNS
[5] = test system: SW-620 colon
[6] = test system: A498 renal
[7] = test system: SK-MEL-2 melanoma
[8] = test system: CAKI-1 renal
[9] = test system: ACHN renal
[10] = test system: HCC-2998 colon
[11] = test system: NCI-H460 lung
[12] = test system: DU-145 prostate
[13] = test system: SR leukemia
[14] = test system: MDA-MB-435
[15] = test system: MDA-MB-231 breast
[16] = test system: NCI-H23 lung
[17] = test system: M14 melanoma
[18] = test system: TK-10 renal
[19] = test system: CCRF-CEM leukemia
[20] = test system: SN12C renal
[21] = test system: SK-MEL-28 melanoma
[22] = test system: UO-31 renal
[23] = test system: SNB-19 CNS
[24] = test system: UACC-257 melanoma
[25] = test system: MCF7 breast
[26] = test system: NCI-H522 lung
[27] = test system: COLO 205 colon
[28] = test system: RPMI-8226 leukemia
[29] = test system: OVCAR-3 ovarian
[30] = test system: U251 CNS
[31] = test system: MALME-3M melanoma
[32] = test system: UACC-62 melanoma
[33] = test system: HOP-92 NSCLC
[34] = test system: 786-0 renal
[35] = test system: HCT-116 colon
[36] = test system: RXF 393 renal
[37] = test system: NCI/ADR-RES ovarian
[38] = test system: SK-OV-3 ovarian
[39] = test system: LOX IMVI melanoma
[40] = test system: SF-295 CNS
[41] = test system: A549 NSCLC
[42] = test system: OVCAR-5 ovarian
[43] = test system: PC-3 prostate
[44] = test system: OVCAR-4 ovarian
[45] = test system: KM12 colon
[46] = test system: HL-60(TB) leukemia
[47] = test system: OVCAR-8 ovarian
[48] = test system: SNB-75 CNS
[49] = test system: NCI-H226 lung
[50] = test system: SK-MEL-5 melanoma
[51] = test system: T-47D breast
[52] = test system: MOLT-4 leukemia
[53] = test system: K-562 leukemia
[54] = test system: HT29 colon
[55] = test system: EKVX NSCLC
[56] = test system: HOP-62 NSCLC
[57] = test system: BT-549 breast

COc1cc(C(=O)N2CCN(c3ncccn3)CC2)c(N)cc1OCc1ccccc1
inactive: GI50 [1] > 100 µM | GI50 [2] > 100 µM | GI50 [3] > 100 µM | GI50 [4] > 100 µM | GI50 [5] > 100 µM | GI50 [6] 54.2 µM | GI50 [7] > 100 µM | GI50 [8] 11.9 µM | GI50 [9] > 100 µM | GI50 [10] > 100 µM | GI50 [11] > 100 µM | GI50 [12] 37.2 µM | GI50 [13] > 100 µM | GI50 [14] > 100 µM | GI50 [15] > 100 µM | GI50 [16] > 100 µM | GI50 [17] > 100 µM | GI50 [18] > 100 µM | GI50 [19] > 100 µM | GI50 [20] 63.9 µM | GI50 [21] > 100 µM | GI50 [22] > 100 µM | GI50 [23] > 100 µM | GI50 [24] > 100 µM | GI50 [25] > 100 µM | GI50 [26] > 100 µM | GI50 [27] > 100 µM | GI50 [28] > 100 µM | GI50 [29] 85.6 µM | GI50 [30] > 100 µM | GI50 [31] > 100 µM | GI50 [32] > 100 µM | GI50 [33] > 100 µM | GI50 [34] > 100 µM | GI50 [35] > 100 µM | GI50 [36] > 100 µM | GI50 [37] > 100 µM | GI50 [38] > 100 µM | GI50 [39] > 100 µM | GI50 [40] > 100 µM | GI50 [41] > 100 µM | GI50 [42] 29.6 µM | GI50 [43] > 100 µM | GI50 [44] > 100 µM | GI50 [45] > 100 µM | GI50 [46] > 100 µM | GI50 [47] > 100 µM | GI50 [48] 50.7 µM | GI50 [49] > 100 µM | GI50 [50] 44.5 µM | GI50 [51] > 100 µM | GI50 [52] 81.6 µM | GI50 [53] > 100 µM | GI50 [54] > 100 µM
> 100 µM: TGI [1] | TGI [2] | TGI [3] | TGI [4] | TGI [5] | TGI [6] | TGI [7] | TGI [8] | TGI [9] | TGI [10] | TGI [11] | TGI [12] | TGI [13] | TGI [14] | TGI [15] | TGI [16] | TGI [17] | TGI [18] | TGI [19] | TGI [20] | TGI [21] | TGI [22] | TGI [23] | TGI [24] | TGI [25] | TGI [26] | TGI [27] | TGI [28] | TGI [29] | TGI [30] | TGI [31] | TGI [32] | TGI [33] | TGI [34] | TGI [35] | TGI [36] | TGI [37] | TGI [38] | TGI [39] | TGI [40] | TGI [41] | TGI [42] | TGI [43] | TGI [44] | TGI [45] | TGI [46] | TGI [47] | TGI [48] | TGI [49] | TGI [50] | TGI [51] | TGI [52] | TGI [53] | TGI [54]

CN1C(=O)/C(=C/c2c(Cl)n(C)c3ccccc23)c2ccccc21
0.825 µM: TGI [51]
9.33 µM: TGI [20]
5.17 µM and 2.76 µM: TGI [29]
7.76 µM and 2.99 µM: TGI [40]
3.94 µM: TGI [28]
1.63 µM: TGI [27]
10.2 µM: TGI [46]
6.51 µM and 3.46 µM: TGI [50]
2.67 µM: TGI [18]
3.34 µM: TGI [33]
6.03 µM: TGI [55]
3.16 µM: TGI [30]
4 µM and 3.13 µM: TGI [14]
3.11 µM: TGI [9]
2.75 µM: TGI [22]
3.25 µM: TGI [42]
3.05 µM: TGI [21]
3.84 µM: TGI [36]
2.77 µM: TGI [8]
3.45 µM: TGI [44]
> 100 µM: TGI [11] | TGI [19] | TGI [25]
17.8 µM: TGI [54]
8.96 µM: TGI [56]
3.56 µM: TGI [3]
3.62 µM: TGI [48]
2.8 µM: TGI [17]
5.96 µM and 2.94 µM: TGI [16]
9.29 µM and 5.34 µM: TGI [1]
2.91 µM: TGI [38]
0.756 µM: TGI [52]
8.59 µM: TGI [15]
9.25 µM: TGI [57]
1.39 µM: TGI [35]
3.49 µM: TGI [45]
1.88 µM and 0.245 µM: GI50 [52]
inactive: GI50 [55] 2.11 µM | GI50 [1] 3.46 µM and 2.42 µM | GI50 [2] 4.34 µM | GI50 [3] 2.69 µM and 1.89 µM | GI50 [4] 9.2 µM | GI50 [5] 5.07 µM | GI50 [7] 5 µM | GI50 [8] 3.3 µM and 1.43 µM | GI50 [9] 4.85 µM and 1.7 µM | GI50 [11] 6.17 µM and 2.84 µM | GI50 [12] 5.05 µM | GI50 [14] 1.89 µM and 1.69 µM | GI50 [15] 1.99 µM | GI50 [16] 1.92 µM and 1.56 µM | GI50 [17] 2.81 µM and 1.32 µM | GI50 [18] 9.52 µM and 1.38 µM | GI50 [20] 1.82 µM | GI50 [21] 5.24 µM and 1.62 µM | GI50 [22] 8 µM and 1.24 µM | GI50 [23] 6.84 µM | GI50 [56] 2.99 µM | GI50 [24] 4.53 µM | GI50 [57] 3.31 µM | GI50 [25] 3.02 µM and 2.15 µM | GI50 [26] 5.12 µM | GI50 [27] 4.59 µM and 0.485 µM | GI50 [28] 1.53 µM | GI50 [29] 2.05 µM and 1.45 µM | GI50 [30] 3.7 µM and 1.73 µM | GI50 [31] 7.07 µM | GI50 [32] 2.8 µM | GI50 [33] 1.8 µM | GI50 [34] 3.09 µM | GI50 [36] 7.89 µM and 1.56 µM | GI50 [37] 1.92 µM | GI50 [38] 4.84 µM and 1.57 µM | GI50 [39] 4.79 µM | GI50 [40] 2.74 µM and 1.58 µM | GI50 [41] 7.78 µM | GI50 [42] 3.61 µM and 1.85 µM | GI50 [43] 2.67 µM | GI50 [44] 8.99 µM and 1.82 µM | GI50 [45] 3.34 µM and 1.31 µM | GI50 [46] 0.44 µM | GI50 [47] 5.49 µM | GI50 [48] 4.51 µM and 1.96 µM | GI50 [49] 5.05 µM | GI50 [50] 2.1 µM and 1.96 µM | GI50 [53] 3.15 µM | GI50 [54] 4.37 µM and 5.57 µM
5.17 µM: TGI [37]
